Assay results as given in patent US10485841B2, “Method for producing dry extracts” (Bionorica SE, priority 2011, dated 2019).

Tests used:
[1] = tested on: carrageen-induced paw oedema; assay: carrageen-induced paw oedema in rats (Example 2); assay type: in vivo, rat; settings: 30 minutes following carrageen injection, FIG. 3
From the text: (§1) The anti-inflammatory activity of Sinupret could be confirmed in the animal model. For example, carrageen-induced paw oedema in rats (Male Wistar Han rats, 220-230 g) was selected as the test model. In this model, it was possible to examine the anti-inflammatory effect of test substances by measuring their inhibitory effect on the paw oedema or pleuritis caused by carrageen. The following were used as reference substances: (RS)-2-[4-(2-methylpropyl)phenyl]propanoic acid (Ibuprofen®) and 2-[1-(4-chlorobenzoyl)-5-methoxy-2-methyl-1H-indol-3-yl] acetic acid (indomethacin, “indo”). In the present tests, groups of 10 rats in each case were treated either with Ibuprofen®, indomethacin, Sinupret® dry extract (SIN TR) or Sinupret® drug mixture (SIN, as commercially available) and were injected one hour later with carrageen. The inhibition of the oedema formation by the test and reference substances was determined at various moments in time after carrageen injection, wherein the paw volume of animals treated only with carrageen was used as a control (vehicle=blank control). The results of these tests are presented in Tables 1 and 2 and in FIGS. 3 to 6 and will be explained hereinafter.

[2] = tested on: carrageen-induced pleuritis; assay: carrageen-induced pleuritis in rats; assay type: in vivo, rat; settings: 5 mg/kg
From the text: as §1
Rats (10 per group) were each treated with 100 mg/kg or 500 mg/kg of SIN and by way of comparison with 5 mg/kg of indomethacin and blank and were injected 1 hour later with carrageen.
“Inflammatory cells” correlates to PMN (polymorphonuclear neutrophils) accumulation/infiltration.
Statistics: average+/−SEM, n=10, ** p<0.01; ***p<0.001 vs vehicle (blank) (Tukey Test), p<0.05 is statistically significant.
Rats (10 per group) were each treated with 100 mg/kg or 500 mg/kg of SIN TR and by way of comparison with 5 mg/kg of indomethacin and blank and were injected one hour later with carrageen.

[3] = 4 h after carrageen, mean ± SEM, n=10

Row | Structure (SMILES) | inhibition of paw oedema [1] | exudate volume, inhibition vs vehicle ([2]; 4 h) | inflammatory cells, inhibition vs vehicle ([2]; 4 h) | IL1β [2, 3] [ng/rat] | LTB4 [2, 3] [ng/rat] | PGE2 [2, 3] [ng/rat] | TNFα [2, 3] [ng/rat] | exudate volume [2, 3] [mL] | inflammatory cells × 10^6 [2, 3]
1 | CC(C)Cc1ccc(C(C)C(=O)O)cc1 (racemic) [Ibuprofen®, (RS)-2-[4-(2-methylpropyl)phenyl]propanoic acid] | still did not show any anti-inflammatory effect |  |  |  |  |  |  |  | 
2 | COc1ccc2c(c1)c(CC(=O)O)c(C)n2C(=O)c1ccc(Cl)cc1 [Indomethacin, 2-[1-(4-chlorobenzoyl)-5-methoxy-2-methyl-1H-indol-3-yl] acetic acid] |  | (96%) | (70%) | 3.17 ± 0.18 | 0.43 ± 0.02 | <0.125 | 5.48 ± 0.28 | 0.009 ± 0.003 | 11.4 ± 0.93 × 10^6
